Measurements from patent US11478496B2, “Treatments of prostate cancer” (THE FLORIDA INTERNATIONAL UNIVERSITY BOARD OF TRUSTEES, priority 2020, dated 2022).

Key:
LAPC4 cells [1] = assay: Cell Titer Glo cell viability assay, LAPC4; type: cell-based, human; conditions: 10 μM; androgen depleted conditions (CSS); 24 and 48 h
Protocol: FIGS. 3A-3B show cellular toxicity of the lead compounds in androgen-dependent prostate cancer cell lines. (3A) LNCaP cells were plated in a 96-well plate at 1×10^4 cells/well in the presence of Fetal Bovine Serum (FBS) or Charcoal stripped Serum (CSS). Cells were allowed to attach overnight and were treated with either vehicle (DMSO) or 10 μM of indicated compound. At 24 and 48 h cellular viability was compared using the Cell Titer Glo Luminescent Cell Viability kit. (3B) LAPC4 cells were plated in a 96-well plate at a density of 1×10^4 cells/well in the presence of FBS or CSS. Cells were allowed to attach overnight and treated with 10 μM of indicated compound.
Cell viability was determined using the Cell Titer Glo Cell Viability Assay (Promega, Madison, Wis.), as recommended by manufacturer. All experiments were performed in quadruplicate.

LNCaP cells [2] = assay: RTCA impedance proliferation assay, LNCaP; type: cell-based; conditions: 10 μM; for LNCaP cell proliferation, concentration dependence: 1 μM and 0.1 μM
Protocol: (5A-5B) LNCaP cells were plated onto xCelligence E-plates at 10^4 cells per well in medium supplemented with either 10% FBS (5A) or 10% CSS (5B) serum. […] (5C-5D) LAPC4 cells were plated at 5×10^4 cells per well onto xCelligence E-plates in media supplemented with FBS (5C) or CSS (5D) and allowed to attach overnight. Treatment was conducted as in (5A-5B) and impedance measured continuously in 30 min intervals. […] Background impedance was established after incubating E-plates (Acea Biosciences, San Diego, Calif.) with 50 μL media at room temperature for 30 min and placed in RTCA. Cells were then seeded in 100 μL per well. Cells attached overnight and then treated. During attachment stage and after treatment impedance was measured every 30 min. Impedance is represented by cell index and is calculated as follows: CI=(Zi−Zo)/15Ω where Zi is impedance at an individual time point, and Zo is the background impedance. Average CI was calculated from four wells per treatment at each time point and normalized to the impedance immediately after compound addition.

LAPC4 cells [3] = assay: RTCA impedance proliferation assay, LAPC4; type: cell-based, human; conditions: 10 μM; medium with both FBS and CSS
Protocol: (5A-5B) LNCaP cells were plated onto xCelligence E-plates at 10^4 cells per well in medium supplemented with either 10% FBS (5A) or 10% CSS (5B) serum. Cells attached overnight and were treated with vehicle (DMSO) or 10 μM of the indicated compounds. (5C-5D) LAPC4 cells were plated at 5×10^4 cells per well onto xCelligence E-plates in media supplemented with FBS (5C) or CSS (5D) and allowed to attach overnight. Treatment was conducted as in (5A-5B) and impedance measured continuously in 30 min intervals. […] Proliferation assays were done using Roche DP Real Time Cell Analyzer (RTCA), as described by the manufacturer. Background impedance was established after incubating E-plates (Acea Biosciences, San Diego, Calif.) with 50 μL media at room temperature for 30 min and placed in RTCA. Cells were then seeded in 100 μL per well. Cells attached overnight and then treated. During attachment stage and after treatment impedance was measured every 30 min. Impedance is represented by cell index and is calculated as follows: CI=(Zi−Zo)/15Ω where Zi is impedance at an individual time point, and Zo is the background impedance. Average CI was calculated from four wells per treatment at each time point and normalized to the impedance immediately after compound addition.

LNCaP cells [4] = assay: MTT viability/toxicity assay, LNCaP; type: cell-based; conditions: 48 h
Protocol: Cells were seeded in a 96 well plate at 1×10^4 cells/well and allowed to adhere overnight in the presence of FBS or CSS. The following day treatment was added to the wells and the plates were incubated for 24 h or 48 h. After incubation, 50 μL of MTT (2 mg/mL) was added to each well and incubated in the dark for 4 h. After incubation 150 μL of the media/MTT solution was removed and 100 μL of DMSO was added to each well and incubated for 15 min. Absorbance at 570 nm was measured using a ClarioStar Plate Reader (BMG LabTech, Ortenburg, Germany).

LIG I = LIG I (Homo sapiens, UniProt P18858); assay: LIG I activity on nicked substrate; type: biochemical; conditions: 5 nM LIG I
Protocol: Lane 1 represents the substrate only. Lanes 2 and 3 indicates the reaction mixture with 5 nM LIG I in the absence and presence of DMSO. […] The substrate was ^32P-labeled at the 5′-end of the upstream strand and is illustrated above the gel. The experiments were repeated at least three times. Representative gel is illustrated. Quantification of the results is shown below the gel. Two-way ANOVA with Tukey's multiple comparison posttests was used to determine statistically significant differences. * signifies p<0.05 compared to the control reaction with LIG I and DMSO. […] Lane 1 represents the substrate only. Lanes 2 and 3 indicates the reaction mixture with 5 nM pol β in the absence and presence of DMSO. […] The substrate was ^32P-labeled at the 5′-end of the upstream strand and is illustrated above the gel. The experiments were repeated at least three times. Quantification of the results are shown below the gel. Two-way ANOVA with Tukey's multiple comparison posttests was used to determine statistical significance. * signifies p<0.05 compared to the control reaction with pol β and DMSO.
BER reactions were terminated by adding 2× stopping buffer containing 95% formamide and 10 mM EDTA. Reaction mixtures were then denatured at 95° C. for 5 min and separated by 15% urea-denaturing polyacrylamide gel electrophoresis. Substrates and products were detected and analyzed using a Pharos FX Plus PhosphorImager (Bio-Rad, Hercules, Calif.).

LAPC4 xenograft = system: LAPC4 xenograft
Excerpt: Human prostate cancer cell line LAPC4 is used to implant into immunocompromised NOD scid male mice. Once tumor sizes reach 0.5 cm^3, the mice are separated into two groups. […] At the end of the 4-week treatment, mice are euthanized. Their tumors are excised and weighed. Tumors, samples of adjacent nonmalignant tissues, and prostates are collected for comparative analysis.
A portion of the tumor is used for RNA-Seq (RNA sequencing) analysis to reveal the presence and quantity of the entire set of RNA present in these cells.
These measurements are performed using a fluorescence-based in situ DNA damage and repair assay.

LIG I, sequence (P18858 whole entry): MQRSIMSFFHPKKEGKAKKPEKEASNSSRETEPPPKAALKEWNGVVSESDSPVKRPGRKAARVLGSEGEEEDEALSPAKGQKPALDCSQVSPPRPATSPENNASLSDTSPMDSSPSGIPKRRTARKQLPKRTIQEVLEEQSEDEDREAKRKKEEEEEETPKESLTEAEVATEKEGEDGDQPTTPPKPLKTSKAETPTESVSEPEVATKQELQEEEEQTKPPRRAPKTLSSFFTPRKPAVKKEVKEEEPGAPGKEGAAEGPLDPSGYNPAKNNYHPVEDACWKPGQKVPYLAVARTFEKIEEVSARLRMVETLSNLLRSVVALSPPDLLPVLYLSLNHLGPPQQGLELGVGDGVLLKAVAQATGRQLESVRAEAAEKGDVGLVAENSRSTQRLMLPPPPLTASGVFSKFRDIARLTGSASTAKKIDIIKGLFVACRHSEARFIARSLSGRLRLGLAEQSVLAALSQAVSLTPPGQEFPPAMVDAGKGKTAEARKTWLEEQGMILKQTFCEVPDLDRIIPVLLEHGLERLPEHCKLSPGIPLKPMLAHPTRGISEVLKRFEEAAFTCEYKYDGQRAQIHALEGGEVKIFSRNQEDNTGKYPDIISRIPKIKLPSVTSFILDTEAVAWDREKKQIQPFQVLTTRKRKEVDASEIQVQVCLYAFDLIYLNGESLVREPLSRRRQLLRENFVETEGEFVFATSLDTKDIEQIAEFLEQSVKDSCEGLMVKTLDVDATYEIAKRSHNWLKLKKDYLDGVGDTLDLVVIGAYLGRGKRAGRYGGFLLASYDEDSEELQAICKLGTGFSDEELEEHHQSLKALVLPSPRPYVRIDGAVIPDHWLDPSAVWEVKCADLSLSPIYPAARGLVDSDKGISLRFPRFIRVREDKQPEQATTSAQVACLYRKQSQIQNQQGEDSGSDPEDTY

C[C@@H]1C/C=C/C=C/C=C/C=C/[C@H](O[C@@H]2O[C@H](C)[C@@H](O)[C@H](N)[C@@H]2O)C[C@@H]2O[C@](O)(C[C@@H](O)C[C@H]3O[C@@H]3/C=C/C(=O)O1)C[C@H](O)[C@H]2C(=O)O [natamycin]
toxicity (cell viability) in LAPC4 (LAPC4 cells [1]): highest toxicity
LNCaP cell proliferation, concentration dependence (LNCaP cells [2]; FBS medium): significantly inhibited by all concentrations
LNCaP cell proliferation, concentration dependence (LNCaP cells [2]; medium with CSS): 10 μM and 1 μM were inhibitory
LNCaP cellular proliferation (LNCaP cells [2]; FBS): slowest proliferation rate
LNCaP cellular impedance (LNCaP cells [2]; androgen depleted medium (CSS)): abolished cellular impedance
LAPC4 cellular proliferation and attachment (LAPC4 cells [3]): abolished
concentration reducing viability of LNCaP cells (LNCaP cells [4]; CSS medium): ≥ 0.1 µM
concentration required to reduce LNCaP viability (LNCaP cells [4]; medium supplemented with FBS): ≥ 2.5 µM
reduction of the activity of LIG I (LIG I; 0.5 μM natamycin): 3.5 fold
decrease of the activity of LIG I (LIG I; 5 μM natamycin): 14 fold
reduction of the activity of LIG I (LIG I; at 1 (unit not given) natamycin): 3.5 fold
toxicity for prostate cancer cells in a mouse model (LAPC4 xenograft; LAPC4 xenograft, intravenously, 4 weeks): specific toxicity for prostate cancer cells
tolerability by noncancerous tissues in a mouse model (LAPC4 xenograft; mouse, in vivo, iv): well-tolerated
